Data: patent publication US20100311749A1, “4-BENZOYL-1-SUBSTITUTED-PIPERAZIN-2-ONE DERIVATIVES AS P2X7 MODULATORS” (priority 2007, published 2010)

The molecules below were run against T1, human P2X7 receptor (Homo sapiens, UniProt Q99572) (assay: Ethidium Accumulation Assay). Details: HEK293 cells stably expressing human recombinant P2X7 receptors; 1 mM ATP; values given as 'about'; read-out: pIC50 for human P2X7 receptor antagonist activity (blocking ATP responses) in the Ethidium Accumulation Assay (converted).
T1 construct: expressed in transfected cells
T1 sequence (Q99572 1-595): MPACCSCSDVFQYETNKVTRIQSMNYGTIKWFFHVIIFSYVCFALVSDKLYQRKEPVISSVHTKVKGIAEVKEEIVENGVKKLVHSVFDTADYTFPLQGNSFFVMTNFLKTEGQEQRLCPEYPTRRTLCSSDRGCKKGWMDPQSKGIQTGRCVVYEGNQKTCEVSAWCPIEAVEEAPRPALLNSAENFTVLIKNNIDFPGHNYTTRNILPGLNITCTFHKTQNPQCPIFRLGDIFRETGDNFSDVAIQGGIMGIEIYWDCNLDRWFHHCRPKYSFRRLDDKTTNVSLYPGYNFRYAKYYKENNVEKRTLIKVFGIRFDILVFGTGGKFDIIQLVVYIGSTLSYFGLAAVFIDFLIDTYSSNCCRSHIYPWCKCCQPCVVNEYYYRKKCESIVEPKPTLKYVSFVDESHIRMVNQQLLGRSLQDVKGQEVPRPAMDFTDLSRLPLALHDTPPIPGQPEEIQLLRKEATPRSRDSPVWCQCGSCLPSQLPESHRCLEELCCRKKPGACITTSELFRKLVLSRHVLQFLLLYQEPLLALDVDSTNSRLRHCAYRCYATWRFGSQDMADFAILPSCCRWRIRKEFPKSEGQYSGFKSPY
Type: cell-based
Experimental: Studies were performed using NaCl assay buffer of the following composition: 140 mM NaCl, 10 mM HEPES [4-(2-hydroxyethyl)-1-piperazine-1-ethanesulfonic acid], 5 mM N-methyl-D-glucamine, 5.6 mM KCl, 10 mM D-glucose, 0.5 mM CaCl2 (pH 7.4).
Human Embryonic Kidney (HEK) 293 cells, stably expressing human recombinant P2X7 receptors, were grown in poly-D-lysine pre-treated 96 well plates for 18-24 hours. […] The cells were washed twice with 350 μl of the assay buffer, before addition of 50 μl of the assay buffer containing the putative P2X7 receptor antagonist compound. (A small amount of dimethyl sulfoxide, for initially dissolving the compound, is optionally used and present in this 50 μl test compound sample.) The cells were then incubated at room temperature (19-21° C.) for 30 min before addition of ATP and ethidium (100 μM final assay concentration). The ATP concentration was chosen to be close to the EC80 for the receptor type and was 1 mM for studies on the human P2X7 receptor. Incubations were continued for 8 or 16 min and were terminated by addition of 25 μl of 1.3M sucrose containing 4 mM of the P2X7 receptor antagonist Reactive Black 5 (Aldrich). […] Antagonist pIC50 values for blocking ATP responses were determined using iterative curve fitting techniques.

Row | SMILES | IC50 [nM]
1 | Cc1ccc(N2CCC(O)C2)cc1N1CCN(C(=O)c2cccc(C(F)(F)F)c2Cl)CC1=O (stereo not drawn) [Example 83, 4-{[2-chloro-3-(trifluoromethyl)phenyl]carbonyl}-1-[5-(3-hydroxy-1-pyrrolidinyl)-2-methylphenyl]-2-piperazinone] | 2.51 to 100
2 | Cc1ccc(N2CCOCC2)cc1N1CCN(C(=O)c2cccc(Cl)c2Cl)CC1=O [Example 54, 4-[(2,3-dichlorophenyl)carbonyl]-1-[2-methyl-5-(4-morpholinyl)phenyl]-2-piperazinone] | 2.51 to 100
3 | Cc1c(N2CCOCC2)cccc1N1CCN(C(=O)c2c(Cl)cc(Cl)cc2Cl)CC1=O [Example 82, 1-[2-methyl-3-(4-morpholinyl)phenyl]-4-[(2,4,6-trichlorophenyl)carbonyl]-2-piperazinone] | 2.51 to 100
4 | O=C1CN(C(=O)c2cccc(Cl)c2Cl)CCN1Cc1ccc(F)cc1Cl [Example 15, 1-[(2-Chloro-4-fluorophenyl)methyl]-4-[(2,3-dichlorophenyl)carbonyl]-2-piperazinone] | 5.01 to 200
5 | O=C(c1cccc(Cl)c1Cl)N1CCN(c2ccc(F)cc2Cl)C(=O)C1 [Example 11, 1-(2-Chloro-4-fluorophenyl)-4-[(2,3-dichlorophenyl)carbonyl]-2-piperazinone] | 5.01 to 200
6 | Cc1ccc(N2CCOCC2)cc1N1CCN(C(=O)c2cccc(C(F)(F)F)c2Cl)CC1=O [Example 55, 4-{[2-chloro-3-(trifluoromethyl)phenyl]carbonyl}-1-[2-methyl-5-(4-morpholinyl)phenyl]-2-piperazinone] | 2.51 to 100
7 | O=C(c1cccc(Cl)c1Cl)N1CCN(c2ccc(F)cc2F)C(=O)C1 [Example 19, 4-[(2,3-Dichlorophenyl)carbonyl]-1-(2,4-difluorophenyl)-2-piperazinone] | 5.01 to 200
8 | CC(C)Oc1cc(F)ccc1N1CCN(C(=O)c2cccc(C(F)(F)F)c2Cl)CC1=O [Example 57, 4-{[2-chloro-3-(trifluoromethyl)phenyl]carbonyl}-1-{4-fluoro-2-[(1-methylethyl)oxy]phenyl}-2-piperazinone] | 2.51 to 100

Now from value to molecule:

Row | IC50 [nM] | SMILES
9 | 2.51 to 100 | COc1ccc(I)cc1N1CCN(C(=O)c2cccc(C(F)(F)F)c2Cl)CC1=O [Example 64, 4-{[2-chloro-3-(trifluoromethyl)phenyl]carbonyl}-1-[5-iodo-2-(methyloxy)phenyl]-2-piperazinone]
10 | 2.51 to 100 | O=C(c1cccc(C(F)(F)F)c1Cl)N1CCN(c2ccc(F)cc2F)C(=O)C1 [Example 21, 4-{[2-chloro-3-(trifluoromethyl)phenyl]carbonyl}-1-(2,4-difluorophenyl)-2-piperazinone]
11 | 2.51 to 100 | Cc1c(Br)cccc1N1CCN(C(=O)c2cccc(C(F)(F)F)c2Cl)CC1=O [Example 46, 1-(3-bromo-2-methylphenyl)-4-{[2-chloro-3-(trifluoromethyl)phenyl]carbonyl}-2-piperazinone]
12 | 2.51 to 100 | N#Cc1cc(F)ccc1N1CCN(C(=O)c2cccc(C(F)(F)F)c2Cl)CC1=O [Example 50, 2-(4-{[2-chloro-3-(trifluoromethyl)phenyl]carbonyl}-2-oxo-1-piperazinyl)-5-fluorobenzonitrile]
